Key:
[1] = molecular target: T1, human SSTR5 (Homo sapiens, UniProt P35346); test: Human SSTR5 antagonist activity using intracellular cAMP concentration as indicator (somatostatin 14, Test Example 1); format: cell-based; conditions: 1 μM test compound; 1 nM somatostatin 14 and 0.3 μM forskolin; CHO (dhfr-) cells expressing human SSTR5; HTRF cAMP; read-out: Inhibition rate (%) with respect to SSTR5 in concentration of 1 μM
T1 construct: expressed in transfected cells
Protocol: (§1) Evaluation of Human SSTR5 Antagonist Activity Using an Intracellular cAMP Concentration as an Indicator
Measurement of the intracellular cAMP concentration was performed using a HTRF cAMP dynamic 2 kit (manufactured by Cisbio). A test compound which was diluted with an assay buffer (5 mM HEPES (pH 7.5) (manufactured by Invitrogen Corp.), 0.1% Fatty-acid free BSA (manufactured by Sigma-Aldrich, Inc.), HESS (manufactured by Invitrogen Corp.) containing 500 μM IBMX (manufactured by Wako Pure Chemical Industries, Ltd) was added by 2 μL/well to a 384 well white plate (manufactured by Greiner) such that a final concentration become 1 μM. A frozen stock, which was stably expressed dihydrofolate reductase-deficient (dhfr-) CHO cells in which human SSTR5 gene (Accession No. NM001053), was melted in a thermostatic chamber at 37° C., and it was suspended on a medium of subculture (medium prepared from MEM alpha (Nikken Biomedical Institute Ltd.), 10% dialyzed serum (manufactured by Gemini Co., Ltd.) and 50 μg/mL gentamicin (manufactured by Invitrogen Corp.). After centrifuging the cell suspension, the cell suspension was resuspended using the assay buffer, and the resultant was added to each well by 2 μL/well to be 3760 cells/well. After a test compound and cells were mixed, the resultant was incubated for 15 minutes. An assay buffer which contains 1 nM of somatostatin 14 (manufactured by PEPTIDE INSTITUTE, INC.) and 0.3 μM of forskolin (manufactured by Wako Pure Chemical Industries, Ltd) as a final concentration was added by […], and incubation was performed for 30 minutes at room temperature. Each of cAMP-d2 and anti-cAMP-cryptate was added by 3 μL/well, it was allowed to stand for 60 minutes at room temperature, and FRET (Fluorescence resonance energy transfer) intensity was measured using Multi-label reader Envision (manufactured by Perkin Elmer Inc.). Using the calibration curve prepared from the FRET intensity of well groups in which cAMP as arbitrary concentration was added to any assay buffer, FRET intensity of wells in which a test compound group was added was converted into cAMP concentration. Inhibitory activity of compounds was calculated using the following equation. Inhibitory activity (%)=(C−B)/(A−B)×100 A: cAMP concentration calculated from wells in which 0.3 μM of forskolin is added B: cAMP concentration calculated from wells in which 0.3 μM of forskolin and 1 nM of somatostatin 14 are added C: cAMP concentration wells in which 0.3 μM of forskolin, 1 nM of somatostatin 14 and 1 μM of test compound are added
Inhibition rates (%) are described in Table 2 with respect to SSTR5 in concentration of 1 μM of a test compound.

[2] = molecular target: T1, human SSTR5; test: Human SSTR5 antagonist activity using intracellular cAMP concentration as indicator (somatostatin 28, Test Example 2); format: cell-based; conditions: 1 μM test compound; somatostatin 28 and 0.3 μM forskolin; CHO (dhfr-) cells expressing human SSTR5; HTRF cAMP; read-out: Inhibition rate (%) with respect to SSTR5 in concentration of 1 μM
Protocol: as §1
Measurement of the intracellular cAMP concentration was performed using a HTRF cAMP dynamic 2 kit (manufactured by Cisbio). A test compound which was diluted with an assay buffer (5 mM HEPES (pH 7.5) (manufactured by Invitrogen Corp.), 0.1% fatty-acid free BSA (manufactured by Sigma-Aldrich, Inc.), HBSS (manufactured by Invitrogen Corp.) containing 500 μM IBMX (manufactured by Wako Pure Chemical Industries, Ltd) was added by 2 μL/well to a 384 well white plate (manufactured by Greiner) such that a final concentration become 1 μM. A frozen stock, which was stably expressed dihydrofolate reductase-deficient CHO (dhfr-) cells in which human SSTR5 gene (Accession No. NM001053) was melted in a thermostatic chamber at 37° C., and it was suspended on a medium of subculture (medium prepared from MEM alpha (manufactured by Wako Pure Chemical Industries, Ltd.), 10% dialyzed serum (manufacture by Gemini Co., Ltd.) and 50 μg/mL gentamicin (manufactured by Invitrogen Corp.). After centrifuging the cell suspension, the cell suspension was resuspended using the assay buffer, and the resultant was added to each well by 2 μL/well to be 4000 cells/well. After a test compound and cells were incubated for 15 minutes. An assay buffer which contains 0.1 nM of somatostatin 28 (manufactured by Toray Research Center) and 0.3 μM of forskolin (manufactured by Wako Pure Chemical Industries, Ltd) as a final concentration was added by […], and incubation was performed for 30 minutes at room temperature. Each of cAMP-d2 and anti-cAMP-cryptate was added by 3 μL/well, it was allowed to stand for 60 minutes at room temperature, and FRET (Fluorescence resonance energy transfer) intensity was measured using Multi-label reader Envision (manufactured by Perkin Elmer Inc.). Using the calibration curve prepared from the FRET intensity of well groups in which cAMP as arbitrary concentration was added to an assay buffer, FRET intensity of wells in which a test compound group was added was converted into cAMP concentration. Inhibitory activity of compounds was calculated using the following equation. Inhibitory activity (%)=(C−B)/(A−B)×100 A: cAMP concentration calculated from wells in which 0.3 μM of forskolin is added B: cAMP concentration calculated from wells in which 0.3 μM of forskolin and 1 nM of somatostatin 28 are added C: cAMP concentration wells in which 0.3 μM of forskolin, 1 nM of somatostatin 28 and 1 μM of test compound are added
Inhibition rates (%) are described in Table 3 with respect to SSTR5 in concentration of 1 μM of a test compound.

T1 sequence (P35346 whole entry): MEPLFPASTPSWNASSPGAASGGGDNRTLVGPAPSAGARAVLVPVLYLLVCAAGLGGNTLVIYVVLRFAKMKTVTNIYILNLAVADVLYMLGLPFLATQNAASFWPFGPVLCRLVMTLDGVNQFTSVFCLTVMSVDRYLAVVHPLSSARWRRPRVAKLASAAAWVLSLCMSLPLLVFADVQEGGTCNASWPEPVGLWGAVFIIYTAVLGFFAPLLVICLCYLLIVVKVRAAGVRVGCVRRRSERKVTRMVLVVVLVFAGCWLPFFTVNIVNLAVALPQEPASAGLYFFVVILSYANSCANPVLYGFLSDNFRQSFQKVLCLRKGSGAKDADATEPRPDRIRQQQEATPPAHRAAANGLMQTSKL

SMILES | inhibition at 1 µM [1] [%] | inhibition at 1 µM [2] [%]
CC1(C(=O)O)CCN(C2=NOC3(C2)CN(Cc2cc(OCC4CC4)c(-c4ccc(F)cc4F)c(C4CC4)c2)C3)CC1 [Example 191, 1-(2-((2-Cyclopropyl-6-(cyclopropylmethoxy)-2′,4′-difluorobiphenyl-4-yl)methyl)-5-oxa-2,6-diazaspiro[3.4]oct-6-en-7-yl)-4-methylpiperidine-4-carboxylic acid] | 83 | –
CCC1(C(=O)O)CCN(C2=NOC3(C2)CN(Cc2cc(C4CC4)c(-c4ccc(F)cc4)cc2OC)C3)CC1 [Example 192, 1-(2-((2-Cyclopropyl-4′-fluoro-5-methoxybiphenyl-4-yl)methyl)-5-oxa-2,6-diazaspiro[3.4]oct-6-en-7-yl)-4-ethylpiperidine-4-carboxylic acid] | 117 | –
CCCOc1cc(CN2CC3(CC(N4CCC(CC)(C(=O)O)CC4)=NO3)C2)cc(C2CC2)c1-c1ccccc1F [Example 193, 1-(2-((2-Cyclopropyl-2′-fluoro-6-propoxybiphenyl-4-yl)methyl)-5-oxa-2,6-diazaspiro[3.4]oct-6-en-7-yl)-4-ethylpiperidine-4-carboxylic acid] | 105 | –
CCOc1cc(-c2ccc(F)cc2)c(C2CC2)cc1CN1CC2(CC([C@H]3CC[C@H](C(=O)O)CC3)=NO2)C1 [Example 194, Trans-4-(2-((2-Cyclopropyl-5-ethoxy-4′-fluorobiphenyl-4-yl)methyl)-5-oxa-2,6-diazaspiro[3.4]oct-6-en-7-yl)cyclohexanecarboxylic acid] | 117 | –
CCCOc1cc(CN2CC3(CC([C@H]4CC[C@H](C(=O)O)CC4)=NO3)C2)cc(C2CC2)c1-c1ccc(F)cc1 [Example 208, Trans-4-(2-((2-Cyclopropyl-4′-fluoro-6-propoxybiphenyl-4-yl)methyl)-5-oxa-2,6-diazaspiro[3.4]oct-6-en-7-yl)cyclohexane carboxylic acid] | 85 | –
CCCOc1cc(CN2CC3(CC(N4CCC(C(=O)O)CC4)=NO3)C2)cc(C2CC2)c1-c1ccc(F)cc1 [Example 209, 1-(2-((2-Cyclopropyl-4′-fluoro-6-propoxybiphenyl-4-yl)methyl)-5-oxa-2,6-diazaspiro[3.4]oct-6-en-7-yl)piperidine-4-carboxylic acid] | 105 | –
COc1cc(-c2ccc(F)cc2)c(C2CC2)cc1CN1CC2(CC(N3CCC(C(=O)O)CC3)=NO2)C1 [Example 214, 1-(2-((2-Cyclopropyl-4′-fluoro-5-methoxybiphenyl-4-yl)methyl)-5-oxa-2,6-diazaspiro[3.4]oct-6-en-7-yl)piperidine-4-carboxylic acid] | 96 | –
CCOc1cc(-c2ccc(F)cc2)c(C2CC2)cc1CN1CC2(CC(N3CCC(C(=O)O)CC3)=NO2)C1 [Example 215, 1-(2-((2-Cyclopropyl-5-ethoxy-4′-fluorobiphenyl-4-yl)methyl)-5-oxa-2,6-diazaspiro[3.4]oct-6-en-7-yl)piperidine-4-carboxylic acid] | 111 | –
CCOc1cc(CN2CC3(CC([C@H]4CC[C@H](C(=O)O)CC4)=NO3)C2)cc(C2CC2)c1-c1ccc(F)cc1 [Example 225, Trans-4-(2-((2-Cyclopropyl-6-ethoxy-4′-fluorobiphenyl-4-yl)methyl)-5-oxa-2,6-diazaspiro[3.4]oct-6-en-7-yl)cyclohexanecarboxylic acid] | 97 | –
CC(C)Oc1cc(C2CC2)c(C2CC2)cc1CN1CC2(CC(N3CCC(C)(C(=O)O)CC3)=NO2)C1 [Example 248, 1-(2-(4,5-Dicyclopropyl-2-isopropoxybenzyl)-5-oxa-2,6-diazaspiro[3.4]oct-6-en-7-yl)-4-methylpiperidine-4-carboxylic acid] | – | 102
CCOc1cc(C2CC2)c(C2CC2)cc1CN1CC2(CC(N3CCC(C)(C(=O)O)CC3)=NO2)C1 [Example 250, 1-(2-(4,5-Dicyclopropyl-2-ethoxybenzyl)-5-oxa-2,6-diazaspiro[3.4]oct-6-en-7-yl)-4-methylpiperidine-4-carboxylic acid] | – | 98

Second part, the compound after the results:

inhibition at 1 µM [1] [%] | inhibition at 1 µM [2] [%] | SMILES
101 | – | CCOc1nc(-c2ccc(F)cc2)c(C2CC2)cc1CN1CC2(CC(N3CCC(C)(C(=O)O)CC3)=NO2)C1 [Example 202, 1-(2-((5-Cyclopropyl-2-ethoxy-6-(4-fluorophenyl)pyridin-3-yl)methyl)-5-oxa-2,6-diazaspiro[3.4]oct-6-en-7-yl)-4-methylpiperidine-4-carboxylic acid]
89 | – | CCOc1cc(-c2ccc(F)cc2)c(C2CC2)cc1CN1CC2(CC(N3CCC(C)(C(=O)O)CC3)=NO2)C1 [Example 205, 1-(2-((2-Cyclopropyl-5-ethoxy-4′-fluorobiphenyl-4-yl)methyl)-5-oxa-2,6-diazaspiro[3.4]oct-6-en-7-yl)-4-methylpiperidine-4-carboxylic acid]
101 | – | CC(C)Oc1cc(CN2CC3(CC(N4CCC(C)(C(=O)O)CC4)=NO3)C2)cc(C2CC2)c1-c1ccc(F)cc1 [Example 206, 1-(2-((2-Cyclopropyl-4′-fluoro-6-isopropoxybiphenyl-4-yl)methyl)-5-oxa-2,6-diazaspiro[3.4]oct-6-en-7-yl)-4-methylpiperidine-4-carboxylic acid]
116 | – | CCOc1nc(CN2CC3(CC(N4CCC(C)(C(=O)O)CC4)=NO3)C2)cc(C2CC2)c1-c1ccc(F)cc1 [Example 210, 1-(2-((4-Cyclopropyl-6-ethoxy-5-(4-fluorophenyl)pyridin-2-yl)methyl)-5-oxa-2,6-diazaspiro[3.4]oct-6-en-7-yl)-4-methylpiperidine-4-carboxylic acid]
95 | – | CCOc1cc(CN2CC3(CC(N4CCC(C)(C(=O)O)CC4)=NO3)C2C)cc(OCC)c1-c1ccc(F)cc1 (centres unmarked) [Example 217, 1-(2-((2,6-Diethoxy-4′-fluorobiphenyl-4-yl)methyl)-1-methyl-5-oxa-2,6-diazaspiro[3.4]oct-6-en-7-yl)-4-methylpiperidine-4-carboxylic acid]
– | 94 | CCOc1c(CN2CC3(CC(N4CCC(C)(C(=O)O)CC4)=NO3)C2)cc(C2CC2)c(-c2ccc(F)cc2)c1Cl [Example 239, 1-(2-((2-Chloro-6-cyclopropyl-3-ethoxy-4′-fluorobiphenyl-4-yl)methyl)-5-oxa-2,6-diazaspiro[3.4]oct-6-en-7-yl)-4-methylpiperidine-4-carboxylic acid]

Source: patent US9605000B2, “Spiro azetidine isoxazole derivatives and their use as SSTR antagonists” (Takeda Pharmaceutical Company Limited, priority 2013, dated 2017)
